Values of other authors, collected in US10548906B2, “Methods of promoting hepatic regeneration” (Intercept Pharmaceuticals, Inc., priority 2015, dated 2020).

Experiments:
mice = details: diet enriched with cholic acid, FXR dependent; cited from earlier work
cholestatic animals = details: cited from earlier work
Ntcp = details: mice with intrahepatic (but not extrahepatic) cholestasis; cited from earlier work

Row | Structure (SMILES) | biliary injury (cholestatic animals) | other results
1 | C[C@H](CCC(=O)O)[C@H]1CC[C@H]2[C@@H]3[C@H](O)C[C@@H]4C[C@H](O)CC[C@]4(C)[C@H]3C[C@H](O)[C@]12C [cholic acid] | – | liver growth (mice): induced spontaneous liver growth
2 | Cc1c(-c2cnccn2)ssc1=S [oltipraz] | increase in biliary injury | –
3 | C[C@H](CCC(=O)O)[C@H]1CC[C@H]2[C@@H]3[C@@H](O)C[C@@H]4C[C@H](O)CC[C@]4(C)[C@H]3CC[C@]12C [ursodeoxycholic acid] | increase in biliary injury | –
4 | CC(C)c1onc(-c2c(Cl)cccc2Cl)c1COc1ccc(/C=C/c2cccc(C(=O)O)c2)c(Cl)c1 [GW4064] | – | Ntcp regulation (Ntcp): loss of Ntcp suppression
